The target in the experiment is T1, hNLRP3 (Homo sapiens, UniProt Q96P20).
T1 construct: THP-1 cells were purchased from the American Type Culture Collection; host or cells: THP-1 cells, PMA-differentiated
T1 sequence (Q96P20 whole entry): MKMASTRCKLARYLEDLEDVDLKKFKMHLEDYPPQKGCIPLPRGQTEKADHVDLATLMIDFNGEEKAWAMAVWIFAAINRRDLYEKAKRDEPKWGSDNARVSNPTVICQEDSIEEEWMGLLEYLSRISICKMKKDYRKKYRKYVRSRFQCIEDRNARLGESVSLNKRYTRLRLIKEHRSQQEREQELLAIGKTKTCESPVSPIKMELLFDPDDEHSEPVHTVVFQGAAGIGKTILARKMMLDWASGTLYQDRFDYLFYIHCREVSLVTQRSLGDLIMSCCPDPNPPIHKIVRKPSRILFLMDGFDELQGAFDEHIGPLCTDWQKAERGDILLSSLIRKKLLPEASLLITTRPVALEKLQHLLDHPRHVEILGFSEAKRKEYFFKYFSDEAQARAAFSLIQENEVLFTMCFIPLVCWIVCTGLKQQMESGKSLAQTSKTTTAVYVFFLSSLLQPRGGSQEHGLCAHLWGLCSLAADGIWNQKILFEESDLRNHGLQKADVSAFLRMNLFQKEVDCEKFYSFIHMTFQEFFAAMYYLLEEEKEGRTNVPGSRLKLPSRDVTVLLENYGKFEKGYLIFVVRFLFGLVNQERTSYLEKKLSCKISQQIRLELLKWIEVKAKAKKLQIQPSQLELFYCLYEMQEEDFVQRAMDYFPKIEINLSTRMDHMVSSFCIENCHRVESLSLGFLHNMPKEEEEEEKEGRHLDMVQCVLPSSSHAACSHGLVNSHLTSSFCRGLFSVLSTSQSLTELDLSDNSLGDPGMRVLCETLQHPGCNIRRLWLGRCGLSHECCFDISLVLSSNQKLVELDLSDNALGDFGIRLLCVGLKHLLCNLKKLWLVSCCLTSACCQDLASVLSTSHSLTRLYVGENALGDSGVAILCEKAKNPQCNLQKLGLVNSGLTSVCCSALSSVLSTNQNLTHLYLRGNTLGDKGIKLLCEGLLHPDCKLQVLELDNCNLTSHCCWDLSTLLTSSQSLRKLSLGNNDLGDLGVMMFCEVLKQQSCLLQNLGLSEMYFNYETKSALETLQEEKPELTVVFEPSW
The experiment can be described thus: Measurement of IL-1β production in PMA-differentiated THP-1 cells (hNLRP3 agonist; ELISA, alternative and hTRF procedures). Type of experiment: cell-based. The procedure, abridged: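 PMA-differentiated THP-1 cells (PMA […] 24 h, 20 μg/ml overnight, or 50 ng/ml overnight, by procedure) replated in RPMI with 2% FBS and exposed to compound (e.g. 100–0.1 μM, 1% DMSO; hTRF format top 10 μM) for 4 h, 2 h, or 2 h respectively. Supernatant IL-1β measured by ELISA, or by hTRF with antibodies diluted 1:40.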
(In general: In an ELISA, binding on a coated surface is turned into a signal by an enzyme label.)
As for `CCN(Cc1nc2c(N)nc3cc(-c4cc[nH]n4)ccc3c2n1C)C(=O)OC(C)(C)C` [Compound 420], the EC50 (commonly the concentration that produces a half-maximal response) turned out to be 190 nM. To `CCN(Cc1nc2c(N)nc3cc(-c4ccc(C)cc4)ccc3c2[nH]1)C(C)=O` [Compound 422] belongs 280 nM; to `Nc1nc2cc(-n3cccn3)ccc2c2[nH]c(CN3CCCCC3=O)nc12` [Compound 423], 620 nM; to `CCN(Cc1nc2c(N)nc3cc(-c4cncc(F)c4)ccc3c2[nH]1)C(C)=O` [Compound 427], 5000 nM. Turning to `CCN(Cc1nc2c(N)nc3cc(Br)ccc3c2n1CC(C)C)C(C)=O` [Compound 430], the EC50 was 7450 nM.

As for `CCN(Cc1nc2c(N)nc3cc(Br)ccc3c2n1CCCOC)C(C)=O` [Compound 431], the EC50 was found to be 8670 nM. The molecule `N#Cc1ccc(-c2ccc3c(c2)nc(N)c2nc(CN4CCCC4=O)[nH]c23)cc1` [Compound 434] had an EC50 of 15500 nM.

In turn, `CCOC(=O)N(CC)Cc1nc2c(N)nc3cc(-c4cc[nH]n4)ccc3c2[nH]1` [Compound 436, Ethyl N-{[4-amino-7-(1H-pyrazol-3-yl)-1H-imidazo[4,5-c]quinolin-2-yl]methyl}-N-ethylcarbamate] showed an EC50 of 1300 nM. To `CCN(Cc1nc2c(N)nc3cc(-c4cc[nH]n4)ccc3c2[nH]1)C(=O)Cc1cccc(C)c1` [Compound 437, N-{[4-amino-7-(1H-pyrazol-3-yl)-1H-imidazo[4,5-c]quinolin-2-yl]methyl}-N-ethyl-2-(3-methylphenyl)acetamide] belongs 1100 nM; to `CCN(Cc1nc2c(N)nc3cc(-c4cc[nH]n4)ccc3c2[nH]1)C(=O)c1cccnc1` [Compound 438, N-{[4-amino-7-(1H-pyrazol-3-yl)-1H-imidazo[4,5-c]quinolin-2-yl]methyl}-N-ethylpyridine-3-carboxamide], 4200 nM.

Molecule `CCN(Cc1nc2c(N)nc3cc(-c4cc[nH]n4)ccc3c2[nH]1)C(=O)c1ccccn1` [Compound 439, N-{[4-amino-7-(1H-pyrazol-3-yl)-1H-imidazo[4,5-c]quinolin-2-yl]methyl}-N-ethylpyridine-2-carboxamide] had an EC50 of 5700 nM. Molecule `CCN(Cc1nc2c(N)nc3cc(-c4cc[nH]n4)ccc3c2[nH]1)C(=O)CC(C)(C)O` [Compound 440, N-{[4-amino-7-(1H-pyrazol-3-yl)-1H-imidazo[4,5-c]quinolin-2-yl]methyl}-N-ethyl-3-hydroxy-3-methylbutanamide] gave an EC50 of 18400 nM.

Consider `CCN(Cc1nc2c(N)nc3cc(-c4cc[nH]n4)ccc3c2[nH]1)C(=O)c1ccc(OC)cc1` [Compound 441, N-{[4-amino-7-(1H-pyrazol-3-yl)-1H-imidazo[4,5-c]quinolin-2-yl]methyl}-N-ethyl-4-methoxybenzamide], for which the EC50 is 690 nM. Compared with the last molecule, the EC50 is about 27-fold lower. With `CCN(Cc1nc2c(N)nc3cc(-c4cc[nH]n4)ccc3c2[nH]1)C(=O)c1cnccn1` [Compound 442, N-{[4-amino-7-(1H-pyrazol-3-yl)-1H-imidazo[4,5-c]quinolin-2-yl]methyl}-N-ethylpyrazine-2-carboxamide] the figure was 2600 nM. To `CCN(Cc1nc2c(N)nc3cc(-c4cc[nH]n4)ccc3c2[nH]1)C(=O)Cc1ccccc1` [Compound 443, N-{[4-amino-7-(1H-pyrazol-3-yl)-1H-imidazo[4,5-c]quinolin-2-yl]methyl}-N-ethyl-2-phenylacetamide] belongs 860 nM; to `CCN(Cc1nc2c(N)nc3cc(-c4cc[nH]n4)ccc3c2[nH]1)C(=O)CCCc1ccccc1` [Compound 444, N-{[4-amino-7-(1H-pyrazol-3-yl)-1H-imidazo[4,5-c]quinolin-2-yl]methyl}-N-ethyl-4-phenylbutanamide], 930 nM; to `CCN(Cc1nc2c(N)nc3cc(-c4cc[nH]n4)ccc3c2[nH]1)C(=O)CCC(C)C` [Compound 445, N-{[4-amino-7-(1H-pyrazol-3-yl)-1H-imidazo[4,5-c]quinolin-2-yl]methyl}-N-ethyl-4-methylpentanamide], 740 nM.

The values are drawn from patent US12351580B2, “NLRP3 modulators” (Innate Tumor Immunity, Inc., priority 2017, dated 2025).
